One compound from paper PMC9335333 (Proceedings of the National Academy of Sciences of the …, 2022) can be followed below.

The target of the experiment is T1, vesicular nucleotide transporter (VNUT) (Homo sapiens, UniProt Q9BYT1).
T1 sequence (Q9BYT1 1-436): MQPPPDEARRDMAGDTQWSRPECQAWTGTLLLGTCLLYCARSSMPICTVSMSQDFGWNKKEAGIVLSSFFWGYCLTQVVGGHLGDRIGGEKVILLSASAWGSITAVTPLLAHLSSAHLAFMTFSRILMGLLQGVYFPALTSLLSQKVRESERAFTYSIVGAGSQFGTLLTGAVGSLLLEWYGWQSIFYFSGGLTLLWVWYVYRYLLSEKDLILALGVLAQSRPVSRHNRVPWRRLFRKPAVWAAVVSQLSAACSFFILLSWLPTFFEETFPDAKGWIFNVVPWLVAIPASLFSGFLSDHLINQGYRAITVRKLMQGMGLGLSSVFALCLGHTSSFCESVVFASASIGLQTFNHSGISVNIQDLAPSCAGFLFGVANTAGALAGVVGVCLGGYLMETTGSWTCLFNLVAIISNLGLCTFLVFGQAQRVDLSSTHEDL
The experiment is described as follows: [3H]-ATP uptake in proteoliposomes with purified human VNUT. The experiment is classed as biochemical.

As to `CC/C=C\C/C=C\C/C=C\C/C=C\C/C=C\CCCC(=O)O` [EPA, eicosapentaenoic acid], the IC50 (commonly the concentration at which inhibition is half-maximal) was 0.067 µM.
